Experimental data reported in patent publication US6713459B1, “Methods for the prophylactic and therapeutic treatment of cardiac tissue damage” (East Tennessee State University, priority 2000, dated 2004).
Like-named read-outs stand apart in the source and are kept apart here.

What was measured:
[1] = system: rat hearts subjected to ischemia/reperfusion; test: myocardial infarct size after LAD occlusion and reperfusion, TTC staining; format: in vivo, Sprague-Dawley rats; conditions: 4 hr reperfusion; for infarct size/area at risk: mean±SEM
Method: (§1) Ischemia/reperfusion protocols were performed using Sprague-Dawley rats (Harlan Sprague-Dawley, Indianapolis, Indiana). Left anterior descending (LAD) coronary artery occlusion was performed by tying off the LAD artery near its origin using a suture. Glucan phosphate was employed in the ischemia reperfusion (I/R) studies.
Sprague-Dawley rats (250-300 g) were treated, with (1→3)-β-D-glucans at a concentration of 40 mg/kg one hour before the hearts were subjected to 45 minutes of occlusion of the left anterior descending (LAD) coronary artery, followed by reperfusion for 4 hours. At the completion of the experimental protocol, the heart was removed, rinsed free of blood, stained with 1% Evans Blue, and sectioned into five slices, followed by incubation in triphenyltetrazolium chloride (TTC) solution. Viable myocardium (risk area) was stained with TTC while the necrotic myocardium was pale white. The area of infarction on both sides of each slice was analyzed by an image analyzer (Alpha Imager 2000), corrected for each slice weight and summed for each left ventricle. The infarct areas were expressed as a percentage of risk area as well as a percentage of left ventricle and the risk areas were expressed as a percentage of left ventricle.
Glucan phosphate (40 mg/kg) was administered to rats via intravenous route 5 min. after the rat hearts were subjected to occlusion of the left afterior descending (LAD) coronary artery, followed by 4 hr. reperfusion. Subsequently, the hearts were harvested and the infarct size/area at risk was determined using TTC staining and image analysis as described previously. FIG. 19 illustrates results, with infarct size expressed as percentage of risk area and risk area expressed as percentage of the left ventricle.

NF-κB [2] = test: EMSA of nuclear NF-κB binding activity in rat myocardium after I/R; format: in vivo, Sprague-Dawley rats; conditions: 40 mg/Kg one hr before ischemia (I45 or I15R30)
Method: Rats were pretreated with glucan (40 mg/Kg) for one hr. before being subjected to 45 min. of ischemia (I45), as well as 15 min. ischemia followed by 30 min. reperfusion (I15R30). Nuclear proteins were isolated and analyzed by EMSA. Results are expressed as means±SEM for 5 hearts at each time point. P<0.05 as compared to normal (N).
as §1
(§2) To investigate NF-κB activation in vivo, rat hearts were subjected to various periods of ischemia or ischemia and reperfusion (I/R). For example, levels of IκBα and phosphorylated IκBα proteins in cell cytoplasm following ischemia were evaluated by Western blot with anti-IκBα or antibody specific for the phosphorylated […] (FIG. 9a). NF-κB binding activity in the nucleus following onset of ischemia was analyzed by electrophoretic mobility shift assay (EMSA) (FIG. 10a). […]
NF-κB nuclear binding activity in rat myocardium after in vivo I/R was also determined. […]

IκBα = test: Western blot of cytoplasmic IκBα in rat myocardium after I/R; format: in vivo, Sprague-Dawley rats; conditions: 40 mg/Kg one hr before 15 min ischemia and 30 min reperfusion
Method: FIG. 15 is a graphic representation of effect of glucan on loss of IκBα from rat myocardial cytoplasm following I/R. Rats were pretreated with glucan (40 mg/Kg) for one hr. before being subjected to 15 min. of ischemia and 30 min. of reperfusion. Cytoplasmic proteins were isolated and levels of IκBα protein determined by Western blot analysis. Results were expressed as means±SEM for 5 hearts at each time point. P<0.05 as compared to normal (N).
as §1, §2

TNFα mRNA = test: RT-PCR of TNFα mRNA in rat myocardium after I/R; format: in vivo, Sprague-Dawley rats; conditions: 40 mg/Kg 1 hr before 15 min ischemia and 1 hr reperfusion
Method: FIG. 17 depicts RT-PCR analysis of total RNA obtained from rat myocardium pretreated with glucan (40 mg/Kg) for 1 hr. prior to 15 min. ischemia and 1 hr. reperfusion. TNFα and GAPDH are labeled at right to indicate the position of the corresponding RNA. M is a 100 bp DNA ladder. As indicated, pretreatment with glucan (I15′R1 hr+Glucan) decreases myocardial TNFα mRNA expression after I/R.
as §1
The inventors also investigated whether (1→3)-β-D-glucans regulate TNFα gene expression. […] (1→3)-β-D-glucan down-regulates LPS-induced TNFα mRNA expression in vivo.

[3] = system: cardiac myocyte apoptosis; test: TUNEL assay of cardiac myocyte apoptosis after I/R; format: in vivo, Sprague-Dawley rats; conditions: 40 mg/kg 1 hr before 30 min ischemia, 3 hr reperfusion; untreated I/R hearts 17.17±1.41%
Method: as §1
The effects of (1→3)-β-D-glucan on apoptosis were investigated using rats treated with (1-3)-β-D-glucan (40 mg/kg) 1 hr. before the. hearts were subjected to 30 min. of ischemia followed by 3 hr. reperfusion. Upon completion of the protocol, the hearts were removed, rinsed free of blood, and perfused with freshly prepared phosphate-buffered 4% formaldehyde. Heart segments distal to the ligation were horizontally sliced into 2 mm sections and fixed with phosphate-buffered 4% formaldehyde at 4° C. overnight. The terminal deoxynucleotidyl transferase-mediated dUTP nick end-labeling (TUNEL) technique (Gavrieli, Y., et al., J. Cell Biol. (1992) 119: 493-501) was used to quantitate the level of apoptosis, using an In Situ Cell Death Detection Kit (Roche Diagnostics) and manufacturer's instructions. Briefly, three slides from each block were evaluated to determine the percentage of TUNEL positive cells. For each slide, four fields were randomly examined using a defined rectangular field area with magnification of 200×. A total of 100 cells were counted in each field. […]

NF-κB [4] = test: EMSA of NF-κB nuclear binding activity in liver and lung after cecal ligation and puncture (CLP); format: in vivo, ICR/HSD mice; conditions: for decrease of liver NF-κB binding activity / decrease of lung NF-κB binding activity: tissue 3 hours after CLP
Method: (§3) Nuclear extracts were prepared by homogenizing tissue in hypotonic buffer containing protease inhibitors and incubating the homogenates on ice for approximately 30 minutes with gentle agitation. After cells were lysed, nuclei were collected by centrifugation (14,000 revolutions/min for 5 minutes). Nuclear proteins were extracted by incubating the nuclear fraction on ice for 30 minutes in hypertonic salt buffer containing protease inhibitors. Nuclear extract supernatant was harvested after centrifugation, then stored at −80° C. Protein was quantified by the BCA microprotein assay (Pierce, Rockford, Ill.).
(§4) The electrophoretic mobility shift assay (EMSA) was performed using double-stranded consensus binding site oligonucleotides for NF-κB and NF-IL6 (C/EBP, CCAAT enhancer binding protein), obtained from Santa Cruz Biotechnology (Santa Cruz, Calif.). Oligonucleotides were end-labeled with [γ-^32P]-labeled adenosine triphosphate (Amersham, Arlington Heights, Ill.) with T4 polynucleotide kinase (Promega, Madison, Wis.), using methods known to those of skill in the art. Binding assays were performed in 10 μl of binding reaction mixture containing 10 μg of nuclear proteins and [γ-^32P]-labeled NF-κB or NF-IL6 oligonucleotides. The binding reaction mixture was incubated at room temperature for 20 minutes, then electrophoresed on 4% non-denaturing polyacrylamide gel electrophoresis (PAGE) gels. Specificity of binding was confirmed by addition of a 10-fold excess of cold oligonucleotide to separate reaction mixtures. A 10-fold excess of cold oligonucleotide containing the AP-1 binding site was added to separate reaction mixtures as an additional control. After PAGE, gels were dried and exposed to Kodak X-omat® film at −70° C. Autoradiograms were quantified by scanning densitometry with a Sun IPC workstation running Bioimage® software (Millipore, Bedford, Mass.).
(§5) In studies of (1→3)-β-D-glucan effects on tissue damage due to sepsis, blood (˜0.3 ml) was obtained by open heart puncture from groups of 3 ICR/HSD mice subjected to cecal ligation and puncture (CLP), performed according to the method of Baker et al., Suryery (1983) 94: 331-335, as described by Ayala et al., Circ. Shock (1992) 36: 191-199. Mice subjected to laparotomy only (LO) served as surgical and anesthesia controls. Negative controls were not subjected to either procedure. Blood samples were collected from each group at 1, 2, 4, 8, and 24 hours after surgery. Samples were inoculated into prereduced anaerobically sterilized chopped meat carbohydrate broth (Carr-Scarborough, Stone Mountain, Ga.) under a constant stream of anaerobic carbon dioxide in a VPI Inoculator (Bellco Glass, Vineland, N.J.). After mixing, 1 ml of inoculated broth was aseptically removed from each 6-ml rubber-stoppered anaerobic tube into a sterile loose-capped aerobic culture tube. Both aerobic and anaerobic culture tubes were incubated at 37° C. for 72 hours.
(§6) In pretreatment protocols, 45 mice were randomly divided into 3 groups of 15 mice per group. Group 1 received isovolumetric saline solution intraperitoneally 1 hour before CLP. Group 2 received glucan phosphate (1 mg/mouse=50 mg/kg, intraperitoneally) 1 hour prior to CLP. Group 3 received scleroglucan (1 mg/mouse=50 mg/kg, intraperitoneally) 1 hour prior to CLP. To assess tissue transcription factor activation and cytokine messenger RNA (mRNA) levels, liver and lung tissue were harvested from 5 mice per group at 3 hours after surgery. […] Laparoscopy-only (LO) controls and negative controls received the same saline, glucan phosphate, and scleroglucan treatment as CLP mice.
(§7) In post-treatment protocols, 30 mice were subjected to CLP. These 30 mice were then randomly divided into 2 groups of 15 mice per group. Group 1 received isovolumetric saline solution intravenously 15 minutes post surgery. Group 2 received glucan phosphate (1 mg/mouse=50 mg/kg, intravenously) 15 minutes postsurgery. […]

NF-IL6 = test: EMSA of NF-IL6 nuclear binding activity in liver and lung after CLP; format: in vivo, ICR/HSD mice; conditions: for decrease of liver NF-IL6 binding activity / decrease of lung NF-IL6 binding activity: tissue 3 hours after CLP
Method: as §3, §4, §5, §6, §7

TNF-α mRNA = test: RT-PCR of TNF-α mRNA levels in liver and lung after CLP; format: in vivo, ICR/HSD mice
Method: (§8) Cytokine reverse transcriptase-polymerase chain reaction (RT-PCR) assays were performed using standard techniques known to those of skill in the art. Upstream and downstream primers for murine TNF-α and IL-6 were used to detect presence of those cytokines. Reduced glyceraldehyde phosphate dehydrogenase (GAPDH) was used as the gene transcript control.
as §5
(§9) In pretreatment protocols, 45 mice were randomly divided into 3 groups of 15 mice per group. Group 1 received isovolumetric saline solution intraperitoneally 1 hour before CLP. Group 2 received glucan phosphate (1 mg/mouse=50 mg/kg, intraperitoneally) 1 hour prior to CLP. Group 3 received scleroglucan (1 mg/mouse=50 mg/kg, intraperitoneally) 1 hour prior to CLP. […]
(§10) Survival trends were compared with the Cox proportional hazard and log-rank procedures. […] Differences in bacteremia between LO and CLP groups were assessed with exact probability level determinations. […]

IL-6 mRNA = test: RT-PCR of IL-6 mRNA levels in liver and lung after CLP; format: in vivo, ICR/HSD mice
Method: as §8, §5, §9, §10

[5] = system: ICR/HSD mice subjected to CLP (polymicrobial sepsis); test: survival of mice with polymicrobial sepsis induced by CLP; format: in vivo; conditions: for long-term survival rate: CLP control 20%
Method: as §5, §6
In post-treatment protocols, 30 mice were subjected to CLP. These 30 mice were then randomly divided into 2 groups of 15 mice per group. […]
as §10

[6] = molecular target: macrophage (1→3)-β-D-Glucan receptor; conditions: cited from earlier work
[7] = posttreatment 50 mg/kg intravenously 15 minutes after CLP
[8] = pretreatment 50 mg/kg 1 hour before CLP
[9] = posttreatment 50 mg/kg intravenously 15 minutes post surgery
[10] = pretreatment 50 mg/kg, 3 hours after CLP

For (1→3)-β-D-glucan, the “infarct size/area at risk” value ([1]; 40 mg/kg one hour before 45 min LAD occlusion, untreated 48.82±3.03%) was 25.86±2.33%, the “effect on I/R induced myocardial NF-κB binding activity” value (NF-κB [2]) was “markedly reduced, but did not completely inhibit” and the “effect on cytoplasmic IκBα after I/R” value (IκBα) was “prevent loss”. For the same substance, the “effect on I/R increase in TNFα mRNA levels” value (TNFα mRNA) was “significantly inhibited” and the “apoptotic cell nuclei (TUNEL positive)” value [3] was 3.33±0.71%.
For glucan phosphate, the “decrease of liver NF-κB binding activity” value (NF-κB [4]; [7]) was 42%, the “decrease of lung NF-κB binding activity” value (NF-κB [4]; [7]) was 54% and the “decrease of liver NF-κB binding activity” value (NF-κB [4]; [8]) was 58%. The “decrease of lung NF-κB binding activity” value (NF-κB [4]; [8]) was 81%, the “decrease of liver NF-IL6 binding activity” value (NF-IL6; [7]) was 95% and the “decrease of lung NF-IL6 binding activity” value (NF-IL6; [7]) was 63%. The “decrease of liver NF-IL6 binding activity” value (NF-IL6; [8]) was 77%, the “decrease of lung NF-IL6 binding activity” value (NF-IL6; [8]) was 68% and the “suppression of hepatic TNF-α mRNA levels relative to CLP controls” value (TNF-α mRNA; [9]) was 31%. For the same substance, the “suppression of lung TNF-α mRNA levels relative to CLP controls” value (TNF-α mRNA; [9]) was 28%, the “suppression of hepatic TNF-α mRNA levels relative to CLP controls” value (TNF-α mRNA; [10]) was 44% and the “effect on hepatic IL-6 mRNA levels” value (IL-6 mRNA; [9]) was “not altered”. For the same substance, the “suppression of lung IL-6 mRNA levels relative to CLP controls” value (IL-6 mRNA; [9]) was 30%, the “suppression of hepatic IL-6 mRNA levels relative to CLP controls” value (IL-6 mRNA; [10]) was 49% and the long-term survival rate ([5]; single posttreatment injection 50 mg/kg intravenously 15 minutes after CLP) was 65%. For the same substance, the long-term survival rate ([5]; single prophylactic injection 50 mg/kg intraperitoneally 1 hour before CLP) was 65%, the “reduction of infarct size/area at risk compared to control IR group” value ([1]; 40 mg/kg intravenously 5 min after LAD occlusion) was 53% and the “infarct size/area at risk” value ([1]; 40 mg/kg intravenously 5 min after LAD occlusion, control IR 51.03±3.69%) was 24.39±2.00%. The Kd ([6]; low affinity, read-out: affinity for the macrophage (1→3)-β-D-glucan receptor) was 24 µM.
For scleroglucan, the “decrease of liver NF-κB binding activity” value (NF-κB [4]; [8]) was 54%, the “effect on lung NF-κB nuclear binding activity” value (NF-κB [4]; [10]) was “inhibited” and the “decrease of liver NF-IL6 binding activity” value (NF-IL6; [8]) was 38%. The “effect on lung NF-IL6 nuclear binding activity” value (NF-IL6; [10]) was “inhibited”, the “effect on long-term survival” value ([5]; 50 mg/kg intraperitoneally 1 hour before CLP) was “increased long-term survival” and the Kd ([6]; high affinity, read-out: affinity for the (1→3)-β-D-glucan receptor) was 0.011 µM.
